Test results: paper PMC11211491, “Design of a covalent protein-protein interaction inhibitor of SRPKs to suppress angiogenesis and invasion of cancer cells” (Communications Chemistry, 2024)
Square brackets hold non-standard residues; d marks the D form. Peptide text beside a SMILES is read from it. * marks the point of attachment. Benzoyl(4-SO2F) = O=C(c1ccc(S(=O)(=O)F)cc1)*; Dap = NC[C@H](N)C(=O)O

Legend:
[1] = system: A549 cells; assay: Cellular uptake and endo/lysosomal escape (confocal microscopy); type: cell-based, human
Description: A549 cells (20 × 10^4 per well) were seeded into confocal dishes (SPL Life Sciences) and incubated for adhesion overnight at 37 °C in 5% CO2. 6-FAM-labeled C-DSB or control peptide was diluted to Opti-MEM medium (Gibco) and added to the cells for 24-h incubation. C-DBS was washed with PBS containing 20 U/mL heparin (Sigma-Aldrich) and stained with 40 μM Hoechst 33342 (Life Technologies) and 5 μg/mL Wheat Germ Agglutinin Alexa Fluor 647 Conjugate (Life Technologies) for 20 min. After removing excess dye, cell images were captured by the Leica TCS SP8 Confocal Microscope System. To detect the endo/lysosomal escape of C-DBS, 50 nM Lysotracker Red (Life Technologies) was used to stain the endo/lysosomes. Fluorescence intensity profiles of the region of interest (ROI) were analyzed using ImageJ software.

[2] = system: HeLa; assay: Cell viability assay (MTT); type: cell-based, human; conditions: up to 100 μM, 24 h
Description: (§1) Cells (6 × 10^3 per well) were seeded into a 96-well plate. After overnight incubation, cells were treated with different concentrations of C-DBS for 24 h. The viability of the cells was determined using 3-(4,5-dimethylthiazol-2-yl)-2,5-diphenyltetrazolium bromide (MTT) (Roche). Absorption at 570 nm was measured using a microplate reader (BMG, CLARIOstar) according to the manufacturer’s instructions.

[3] = system: A549; assay: Cell viability assay (MTT); type: cell-based, human; conditions: A549, up to 100 μM, 24 h
Description: as §1

[4] = system: HEK-293; assay: Cell viability assay (MTT); type: cell-based, human; conditions: HEK-293, up to 100 μM, 24 h
Description: as §1

[5] = system: MDA-MB-231; assay: Cell viability assay (MTT); type: cell-based, human; conditions: MDA-MB-231, up to 100 μM, 24 h
Description: as §1

[6] = target: SRPK1ΔNS3; conditions: quoted for comparison, earlier work on DBS1; read-out: Kd of DBS1 for SRPK1; cited from earlier work
Text: Because DBS1 targets the docking groove of SRPK, we tested the specificity of C-DBS toward the same binding site. We performed fluorescence polarization (FP) assay to examine the direct noncovalent interaction between C-DBS and SRPK1ΔNS3, as well as the docking groove mutant SRPK1ΔNS3_DM that contains alanine substitutions at four docking groove residues—D548, D564, E571, and K615—that are essential for the binding and phosphorylation of the substrate (Fig. 2a)[11],[12],[36].

Molecule	cellular uptake ([1]; A549, 10 μM FAM-labeled peptide, 24 h, Opti-MEM, confocal fluorescence microscopy)	endo/lysosomal trapping after internalization ([1]; A549, LysoTracker Red, 1.5 or 24 h incubation)	cytotoxicity (MTT) [2]	cytotoxicity (MTT) [3]	cytotoxicity (MTT) [4]	cytotoxicity (MTT) [5]	Kd [6]
CC(=O)N[C@@H](CCCNC(=N)N)C(=O)N[C@@H](CCC(=O)O)C(=O)N[C@@H](CCCNC(=N)N)C(=O)N[C@@H](C)C(=O)N[C@@H](CCCNC(=N)N)C(=O)N[C@H](C(=O)N[C@@H](CCCNC(=N)N)C(=O)N[C@@H](CCCNC(=N)N)C(=O)N[C@@H](CNC(=O)c1ccc(S(=O)(=O)F)cc1)C(=O)N[C@@H](CCCNC(=N)N)C(=O)N[C@@H](C)C(=O)N[C@@H](CCCNC(=N)N)C(=O)N[C@H](C(=O)N[C@@H](CCCNC(=N)N)C(=O)N[C@@H](CCC(=O)O)C(=O)N[C@@H](CCCNC(=N)N)C(=O)N[C@@H](C)C(=O)N[C@@H](CCCNC(=N)N)C(=O)N[C@H](C(=O)N[C@@H](CCCNC(=N)N)C(N)=O)[C@@H](C)O)[C@@H](C)O)[C@@H](C)O [C-DBS] (Ac-RERARTRR[Dap](Benzoyl(4-SO2F))RARTRERARTR-NH2)	readily internalized by the A549 cells	not trapped in endolysosomal compartments after internalization	no cytotoxicity	no cytotoxicity	no cytotoxicity	no cytotoxicity	–
RERARTRRE^9RARTRERARTR [DBS1]	–	–	–	–	–	–	3.2 ± 1.5 µM
